Measurements as given in patent US8383838B2, “5-oxo-2,3,4,5-tetrahydro-benzo[b]oxepine-4-carboxylic acid amides and 2,3-dihydro-benzo[b]oxepine-4-carboxylic acid amides for treatment and prevention of diabetes typ 1 and 2” (Merck Patent Gesellschaft mit Beschränkter Haftung, priority 2008, dated 2013).

These compounds were tested against T1, human GK (Homo sapiens, UniProt P35557) (assay: Glucokinase Activation Screening Assay (coupled enzyme assay with PK and LDH)). Conditions: activation of human GK in percent of control (control incubation: 2 mM glucose, 0.91% DMSO); compound concentration not stated.
T1 sequence (P35557 1-465): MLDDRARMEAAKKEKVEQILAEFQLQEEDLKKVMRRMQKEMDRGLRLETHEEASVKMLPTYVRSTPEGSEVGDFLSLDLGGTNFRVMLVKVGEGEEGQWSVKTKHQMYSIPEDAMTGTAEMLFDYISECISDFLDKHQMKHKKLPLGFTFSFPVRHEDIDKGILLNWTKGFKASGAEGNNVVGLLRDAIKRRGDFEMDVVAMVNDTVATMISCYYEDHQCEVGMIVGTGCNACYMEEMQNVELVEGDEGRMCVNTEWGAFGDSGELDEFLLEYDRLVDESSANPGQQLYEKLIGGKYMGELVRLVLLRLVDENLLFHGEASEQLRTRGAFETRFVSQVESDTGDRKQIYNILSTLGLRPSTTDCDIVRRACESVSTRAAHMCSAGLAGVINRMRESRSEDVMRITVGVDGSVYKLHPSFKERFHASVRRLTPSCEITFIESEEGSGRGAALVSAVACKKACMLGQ
Format: biochemical
Protocol: Glucokinase Activation Screening Assay
GK activity (human or rat enzyme) is measured by a coupled enzyme assay using pyruvate kinase (PK) and lactate dehydrogenase (LDH) as coupling enzymes. GK activity is calculated from the decline in NADH monitored photometrically with a microtiter plate (MTP) reader at 340 nm.
For screening purposes, the GK assay is routinely run in a 384-MTP format, in a total volume of 33 μl/well. 10 μl of the ATP-regeneration solution (in HEPES-buffer*, pH 7.0, 6.73 U/ml pyruvate kinase, 6.8 U/ml lactate dehydrogenase) and 10 μl of the glucokinase-/glucose solution (15 μg/ml, 6.6 mM glucose in HEPES-buffer*, pH 7.0; the concentration of the glucose stock-solution was 660 mM in Millipore H2O) were mixed together with […] of a 10% DMSO solution (in HEPES-buffer*, pH 7.0) containing 3.3-fold the amounts of the compounds to achieve final compound concentrations in the range between 1 nM to 30 μM (sometimes 300 μM) in the assay solution (s. below). The solutions were mixed for 5 sec, and after a centrifugation at 243×g for 5 min, the solutions were preincubated for 25 min at room temperature.
The reaction was started by the addition of 10 μl of the NADH-/ATP-solution (4.29 mM NADH, 4.95 mM ATP, in HEPES-buffer*). The MTP was shaken for 5 sec., and then, the absorbance at 340 nm was monitored continuously in a MTP-reader (TECAN Spectro fluor plus) for the next 27 min (with a MTP-cycling time of 199 sec.). The final concentrations of the various components were as follows: 49.5 mM Hepes, pH 7.0, 1.49 mM PEP, 1,3 mM NADH, 49.5 mM KCl, 4.96 mM MgCl2, 1.5 mM Mg-ATP, 1.98 mM DTT, 2.04 U/ml pyruvate kinase, 2.06 U/ml lactate-dehydrogenase, 0.91% DMSO, 0.15 μg/well glucokinase, and test compounds in the range between 1 nM and 300 μM.
The change in the optical density (ΔOD340 nm) in the presence of the compound was expressed relative to the ΔOD340 nm, ctrl of the control incubation (in the presence of 2 mM glucose and 0.91% DMSO), taking into account the optical density of the blank sample (incubation in the absence of 2 mM glucose). For the determination of the half maximal effective concentration (EC50), the %-Ctrl-values were plotted in a semi-logarithmic graph against the conc. of the compound of interest. The data points were fitted to a sigmoid curve function (f(x)=((%-Ctrlmax−%-Ctrlmin)/(1−(EC50/x **^n(Hill)))+%-Ctrlmin)) by a non-linear regression analysis.
* Hepes-buffer (50 mM Hepes, pH 7.0, 5 mM MgCl2, 50 mM KCl, 1.5 mM PEP, 0.1% BSA). DTT was added to the Hepes-buffer from a 200X stock solution (in Millipore H2O) freshly each day. The final concentration of DTT in the Hepes-buffer is 2 mM.

| hGK % CTL [% CTL] | SMILES |
| --- | --- |
| 312 | O=C(Nc1ccccn1)C1CCOc2cc(Cl)c(Cl)cc2C1=O (stereo not drawn) [Compound 1, 7,8-Dichloro-5-oxo-2,3,4,5-tetrahydro-benzo[b]oxepine-4-carboxylic acid pyridine-2-ylamide] |
| 218 | O=C(Nc1nccs1)C1CCOc2cc(F)ccc2C1=O (stereo not drawn) [Compound 2, 8-Fluoro-5-oxo-2,3,4,5-tetrahydro-benzo[b]oxepine-4-carboxylic acid thiazol-2-ylamide] |
| 291 | CCc1ccc2c(c1)OCCC(C(=O)Nc1ccccn1)C2=O (stereo not drawn) [Compound 3, 8-Ethyl-5-oxo-2,3,4,5-tetrahydro-benzo[b]oxepine-4-carboxylic acid pyridine-2-ylamide] |
| 129 | O=C(Nc1ccccn1)C1=Cc2ccccc2OCC1 [Compound 4, 2,3-Dihydro-benzo[b]oxepine-4-carboxylic acid pyridin-2-ylamide] |
| 388 | O=C(Nc1ccccn1)C1CCOc2cc(Cl)ccc2C1=O (stereo not drawn) [Compound 5, 8-Chloro-5-oxo-2,3,4,5-tetrahydro-benzo[b]oxepine-4-carboxylic acid pyridin-2-ylamide] |
| 245 | O=C(Nc1ccccn1)C1CCOc2ccccc2C1=O (stereo not drawn) [Compound 6, 5-Oxo-2,3,4,5-tetrahydro-benzo[b]oxepine-4-carboxylic acid pyridin-2-ylamide] |
| 215 | O=C(Nc1nccs1)C1CCOc2cc(Cl)ccc2C1=O (stereo not drawn) [Compound 7, 8-Chloro-5-oxo-2,3,4,5-tetrahydro-benzo[b]oxepine-4-carboxylic acid thiazol-2-ylamide] |
| 194 | O=C(Nc1nccs1)C1CCOc2cc(Cl)c(Cl)cc2C1=O (stereo not drawn) [Compound 8, 7,8-Dichloro-5-oxo-2,3,4,5-tetrahydro-benzo[b]oxepine-4-carboxylic acid thiazol-2-ylamide] |
| 207 | CCc1ccc2c(c1)OCCC(C(=O)Nc1nccs1)C2=O (stereo not drawn) [Compound 9, 8-Ethyl-5-oxo-2,3,4,5-tetrahydro-benzo[b]oxepine-4-carboxylic acid thiazol-2-ylamide] |
| 192 | O=C(Nc1ccccn1)C1CCOc2ccc(Cl)cc2C1=O (stereo not drawn) [Compound 10, 7-Chloro-5-oxo-2,3,4,5-tetrahydro-benzo[b]oxepine-4-carboxylic acid pyridin-2-ylamide] |
| 121 | O=C(Nc1nccs1)C1CCOc2ccc(Cl)cc2C1=O (stereo not drawn) [Compound 11, 7-Chloro-5-oxo-2,3,4,5-tetrahydro-benzo[b]oxepine-4-carboxylic acid thiazol-2-ylamide] |
| 149 | COc1ccc2c(c1)C(=O)C(C(=O)Nc1ccccn1)CCO2 (stereo not drawn) [Compound 12, 7-Methoxy-5-oxo-2,3,4,5-tetrahydro-benzo[b]oxepine-4-carboxylic acid pyridin-2-ylamide] |
| 124 | CC1(C)COc2cc(-c3ccc(F)cc3)ccc2C(=O)C1C(=O)Nc1ccccn1 (stereo not drawn) [Compound 13, 8-(4-Fluoro-phenyl)-3,3-dimethyl-5-oxo-2,3,4,5-tetrahydro-benzo[b]oxepine-4-carboxylic acid pyridin-2-ylamide] |
| 115 | O=C(Nc1nccs1)C1CCOc2ccccc2C1=O (stereo not drawn) [Compound 14, 5-Oxo-2,3,4,5-tetrahydro-benzo[b]oxepine-4-carboxylic acid thiazol-2-ylamide] |
| 94 | O=C(Nc1ccccn1)C1CCOc2ccc(Oc3ccccc3)cc2C1=O (stereo not drawn) [Compound 15, 5-Oxo-7-phenoxy-2,3,4,5-tetrahydro-benzo[b]oxepine-4-carboxylic acid pyridin-2-ylamide] |
| 181 | CC1(C)COc2cc(Cl)c(F)cc2C(=O)C1C(=O)Nc1ccccn1 (stereo not drawn) [Compound 16, 8-Chloro-7-fluoro-3,3-dimethyl-5-oxo-2,3,4,5-tetrahydro-benzo[b]oxepine-4-carboxylic acid pyridin-2-ylamide] |
| 104 | CCc1ccc2c(c1)OCC(C)(C)C(C(=O)Nc1ccccn1)C2=O (stereo not drawn) [Compound 17, 8-Ethyl-3,3-dimethyl-5-oxo-2,3,4,5-tetrahydro-benzo[b]oxepine-4-carboxylic acid pyridin-2-ylamide] |
| 161 | O=C(Nc1nccs1)C1=Cc2ccccc2OCC1 [Compound 18, 2,3-Dihydro-benzo[b]oxepine-4-carboxylic acid thiazol-2-ylamide] |
